According to patent US20190135834A1, “5-SUBSTITUTED AZABENZIMIDAZOLE DERIVATIVE HAVING ???? ACTIVATION ACTION” (Shionogi & Co., Ltd., priority 2016, published 2019):

Target: T1, Human AMPK α2ß2γ1 (Homo sapiens, UniProt O43741+P54646)
T1 construct: The full length cDNAs of human AMPK ß2 (NM_005399.3) and human AMPK α2 (NM_006252.3); The full length cDNAs of human AMPK ß2 (NM_005399.3); 6xHis (N); made in house; host or cells: Escherichia coli BL21 CodonPlus (DE3)-RIL
Assay: Test Example 2: evaluation of an activator for AMP-activated protein kinase (AMPK), LabChip mobility shift assay with CaMKK2-phosphorylated enzyme
Type: biochemical
Details: for EC150 (compound concentration showing 150% relative to the control (100%)): FL-Peptide 7 substrate, 25° C., 2 hours; for Emax: relative to control (100%), read-out: Emax (maximum rate of increase in activity within the measurement range)
Summary of the method: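 E. coli-expressed His-tagged human AMPK α2β2γ1 preactivated with GST-CaMKK2 (0.2 mM ATP, 25° C, 1–1.5 h), preincubated 10 min with compound (1% DMSO), then reacted 2 h at 25° C with 3 μM FL-Peptide 7 and 0.4 mM ATP in substrate solution, pH 7.0. Mobility-shift conversion rate gives % activity increase over no-compound control.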

T1 sequence (P54646 whole entry): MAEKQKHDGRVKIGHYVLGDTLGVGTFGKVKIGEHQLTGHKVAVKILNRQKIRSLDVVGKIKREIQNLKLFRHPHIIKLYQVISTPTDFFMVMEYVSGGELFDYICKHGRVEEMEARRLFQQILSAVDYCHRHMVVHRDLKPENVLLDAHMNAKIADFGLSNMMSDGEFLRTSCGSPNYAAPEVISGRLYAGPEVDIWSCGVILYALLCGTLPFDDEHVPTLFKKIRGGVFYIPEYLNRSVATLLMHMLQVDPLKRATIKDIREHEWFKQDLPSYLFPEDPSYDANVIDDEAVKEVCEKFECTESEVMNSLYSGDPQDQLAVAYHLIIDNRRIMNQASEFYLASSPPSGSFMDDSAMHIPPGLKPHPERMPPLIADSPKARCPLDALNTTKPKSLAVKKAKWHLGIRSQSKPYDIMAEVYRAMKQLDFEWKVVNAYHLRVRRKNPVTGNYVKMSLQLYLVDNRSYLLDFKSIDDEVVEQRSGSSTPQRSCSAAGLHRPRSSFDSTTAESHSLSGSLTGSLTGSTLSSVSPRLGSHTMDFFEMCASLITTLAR
T1 sequence (O43741 whole entry): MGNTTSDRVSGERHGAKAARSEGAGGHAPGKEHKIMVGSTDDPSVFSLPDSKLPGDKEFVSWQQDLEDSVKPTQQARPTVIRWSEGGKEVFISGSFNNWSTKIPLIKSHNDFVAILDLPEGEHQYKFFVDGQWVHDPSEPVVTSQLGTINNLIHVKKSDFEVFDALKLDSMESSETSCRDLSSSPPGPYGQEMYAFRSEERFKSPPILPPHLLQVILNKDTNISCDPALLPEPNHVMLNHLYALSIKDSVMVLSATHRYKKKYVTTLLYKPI
T1 sequence (P54619 whole entry partner): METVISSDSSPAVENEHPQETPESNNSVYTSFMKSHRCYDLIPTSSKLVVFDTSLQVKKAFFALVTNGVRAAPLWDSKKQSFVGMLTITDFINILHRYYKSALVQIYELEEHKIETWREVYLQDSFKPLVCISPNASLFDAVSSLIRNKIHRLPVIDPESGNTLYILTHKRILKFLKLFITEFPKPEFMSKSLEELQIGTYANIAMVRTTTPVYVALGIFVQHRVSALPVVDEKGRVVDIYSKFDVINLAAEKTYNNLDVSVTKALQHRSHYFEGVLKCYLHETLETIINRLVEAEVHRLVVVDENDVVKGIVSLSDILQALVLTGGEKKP

SMILES: O[C@@H]1CO[C@H]2[C@@H]1OC[C@H]2Oc1nc2nc(NC3CCc4cc(OC5CC6(COC6)C5)cc(F)c43)c(Cl)cc2[nH]1 (stereo partly shown) [Compound I-2-60]
- EC150 (compound concentration showing 150% relative to the control (100%)): 6.7 nM
- Emax: 634%

SMILES: O[C@@H]1CO[C@H]2[C@@H]1OC[C@H]2Oc1nc2nc(N[C@H]3CCc4cc(-c5cncnc5)cc(F)c43)c(Cl)cc2[nH]1 [Compound I-2-61]
- EC150 (compound concentration showing 150% relative to the control (100%)): 3.1 nM
- Emax: 649%

SMILES: CN(C)c1ncc(-c2cc(F)c3c(c2)CC[C@@H]3Nc2nc3nc(O[C@@H]4CO[C@H]5[C@@H]4OC[C@H]5O)[nH]c3cc2Cl)cn1 [Compound I-2-62]
- EC150 (compound concentration showing 150% relative to the control (100%)): 9.4 nM
- Emax: 638%

SMILES: O=c1[nH]cc(-c2cc(F)c3c(c2)CC[C@@H]3Nc2nc3nc(O[C@@H]4CO[C@H]5[C@@H]4OC[C@H]5O)[nH]c3cc2Cl)cc1F [Compound I-2-63]
- EC150 (compound concentration showing 150% relative to the control (100%)): 3.9 nM
- Emax: 653%

SMILES: O[C@@H]1CO[C@H]2[C@@H]1OC[C@H]2Oc1nc2nc(N[C@H]3CCc4cc(-c5cnc(C(F)(F)F)nc5)cc(F)c43)c(Cl)cc2[nH]1 [Compound I-2-64]
- EC150 (compound concentration showing 150% relative to the control (100%)): 9.3 nM
- Emax: 676%

SMILES: Cc1ccc(-c2cc(F)c3c(c2)CC[C@@H]3Nc2nc3nc(O[C@@H]4CO[C@H]5[C@@H]4OC[C@H]5O)[nH]c3cc2Cl)cn1 [Compound I-2-66]
- EC150 (compound concentration showing 150% relative to the control (100%)): 8.6 nM
- Emax: 711%

SMILES: O[C@@H]1CO[C@H]2[C@@H]1OC[C@H]2Oc1nc2nc(N[C@H]3CCc4cc(-c5ccc(C(F)(F)F)nc5)cc(F)c43)c(Cl)cc2[nH]1 [Compound I-2-67]
- EC150 (compound concentration showing 150% relative to the control (100%)): 29 nM
- Emax: 683%

SMILES: Cn1cc(-c2cc(F)c3c(c2)CC[C@@H]3Nc2nc3nc(O[C@@H]4CO[C@H]5[C@@H]4OC[C@H]5O)[nH]c3cc2Cl)cc(F)c1=O [Compound I-2-68]
- EC150 (compound concentration showing 150% relative to the control (100%)): 1.8 nM
- Emax: 600%

SMILES: CCc1ncc(-c2cc(F)c3c(c2)CC[C@@H]3Nc2nc3nc(O[C@@H]4CO[C@H]5[C@@H]4OC[C@H]5O)[nH]c3cc2Cl)cn1 [Compound I-2-69]
- EC150 (compound concentration showing 150% relative to the control (100%)): 3 nM
- Emax: 598%

SMILES: Cn1ccc(-c2cc(F)c3c(c2)CC[C@@H]3Nc2nc3nc(O[C@@H]4CO[C@H]5[C@@H]4OC[C@H]5O)[nH]c3cc2Cl)n1 [Compound I-2-70]
- EC150 (compound concentration showing 150% relative to the control (100%)): 5.2 nM
- Emax: 583%

SMILES: CCOc1ncc(-c2cc(F)c3c(c2)CC[C@@H]3Nc2nc3nc(O[C@@H]4CO[C@H]5[C@@H]4OC[C@H]5O)[nH]c3cc2Cl)cn1 [Compound I-2-71]
- EC150 (compound concentration showing 150% relative to the control (100%)): 8.6 nM
- Emax: 590%

SMILES: O[C@@H]1CO[C@H]2[C@@H]1OC[C@H]2Oc1nc2nc(NC3CCc4cc(OCF)cc(F)c43)c(Cl)cc2[nH]1 (stereo partly shown) [Compound I-2-72]
- EC150 (compound concentration showing 150% relative to the control (100%)): 1.8 nM
- Emax: 592%

SMILES: CC(C)(O)Cn1cc(-c2cc(F)c3c(c2)CC[C@@H]3Nc2nc3nc(O[C@@H]4CO[C@H]5[C@@H]4OC[C@H]5O)[nH]c3cc2Cl)cn1 [Compound I-2-73]
- EC150 (compound concentration showing 150% relative to the control (100%)): 1.4 nM
- Emax: 608%

SMILES: O[C@@H]1CO[C@H]2[C@@H]1OC[C@H]2Oc1nc2nc(N[C@H]3CCc4cc(-c5cnn(C6COC6)c5)cc(F)c43)c(Cl)cc2[nH]1 [Compound I-2-74]
- EC150 (compound concentration showing 150% relative to the control (100%)): 1.5 nM
- Emax: 609%

SMILES: O[C@@H]1CO[C@H]2[C@@H]1OC[C@H]2Oc1nc2nc(NC3CCc4cc(OCC(F)F)cc(F)c43)c(Cl)cc2[nH]1 (stereo partly shown) [Compound I-2-75]
- EC150 (compound concentration showing 150% relative to the control (100%)): 2.7 nM
- Emax: 581%

SMILES: CC(C)(O)C#Cc1cc(F)c2c(c1)CC[C@@H]2Nc1nc2nc(O[C@@H]3CO[C@H]4[C@@H]3OC[C@H]4O)[nH]c2cc1Cl [Compound I-2-77]
- EC150 (compound concentration showing 150% relative to the control (100%)): 3.8 nM
- Emax: 650%

SMILES: N#CCn1cc(-c2cc(F)c3c(c2)CC[C@@H]3Nc2nc3nc(O[C@@H]4CO[C@H]5[C@@H]4OC[C@H]5O)[nH]c3cc2Cl)cn1 [Compound I-2-78]
- EC150 (compound concentration showing 150% relative to the control (100%)): 2.5 nM
- Emax: 692%
